# Data taken from US20210008012A1, “NOVEL APPLICATIONS OF DISULFIRAM AND DERIVATIVES THEREOF” (GENEHEAL BIOTECHNOLOGY CO., LTD., priority 2017, published 2021).
# Test system: PAICS
# Experiment: Animal experiments: inhibition of SAICAR accumulation
# Type: in vivo
# Settings: "can reach"
# From the text: By inhibiting the activity of PAICS, the accumulation of toxic compound […] is reduced, which proves that the compound disulfiram can effectively treat rare disease ADSL deficiency.
smiles,measurement,value
"CCN(CC)C(=S)SSC(=S)N(CC)CC [disulfiram, Disulfiram]",inhibition ratio against SAICAR accumulation,87.11%
